{"source": "patent EP0374097A2", "about": "“Use of peptide isosteres as retroviral protease inhibitors” (CIBA-GEIGY AG, priority 1988, dated 1990)", "origin": "cited, not measured here", "tested_on": "gag-Protease von HIV", "details": "stated as known"}
{"substance": "Pepstatin", "values": [{"measurement": "Hemmung der gag-Protease von HIV", "result": "gehemmt"}]}
